Reference: the NIST ThermoML archive (doi:10.1016/j.jct.2016.04.002)
± gives the expanded uncertainty stated by the source.

How the values were obtained:
[1] = Crystal; DTA
[2] = Molar enthalpy of transition or fusion; settings: Crystal; DSC

- Normal melting temperature [1]: 167.01 ± 1.1 °C
- Molar enthalpy of transition or fusion [2]: 12.1 ± 0.526 kcal/mol
SMILES: O=C(O)[C@]1(O)C[C@@H](O)[C@@H](O)[C@H](O)C1
